These results are taken from US20090264427A1, “3-Cyanoquinolines, Methods for Preparation and Use as Insulin-like Growth Factor Inhibitors” (Wyeth, priority 2008, published 2009).

Each structure is given as a SMILES string.

The target of series [1] is T1, IGF1-receptor kinase (IGFR) (Homo sapiens, UniProt P08069).
T1 construct: GST (with thrombin cleavage site) (N); made in house; host or cells: ExpresSF insect cells
Kind of series: 96-well FRET (Lance) tyrosine kinase assay, IGFR. The series is classed as biochemical. To be noted: ATP 100 micromolar final, 1 hour reaction, enzyme form (GST-, Bis- or Tris-IGFR) not given.

T1 sequence (P08069 31-1367): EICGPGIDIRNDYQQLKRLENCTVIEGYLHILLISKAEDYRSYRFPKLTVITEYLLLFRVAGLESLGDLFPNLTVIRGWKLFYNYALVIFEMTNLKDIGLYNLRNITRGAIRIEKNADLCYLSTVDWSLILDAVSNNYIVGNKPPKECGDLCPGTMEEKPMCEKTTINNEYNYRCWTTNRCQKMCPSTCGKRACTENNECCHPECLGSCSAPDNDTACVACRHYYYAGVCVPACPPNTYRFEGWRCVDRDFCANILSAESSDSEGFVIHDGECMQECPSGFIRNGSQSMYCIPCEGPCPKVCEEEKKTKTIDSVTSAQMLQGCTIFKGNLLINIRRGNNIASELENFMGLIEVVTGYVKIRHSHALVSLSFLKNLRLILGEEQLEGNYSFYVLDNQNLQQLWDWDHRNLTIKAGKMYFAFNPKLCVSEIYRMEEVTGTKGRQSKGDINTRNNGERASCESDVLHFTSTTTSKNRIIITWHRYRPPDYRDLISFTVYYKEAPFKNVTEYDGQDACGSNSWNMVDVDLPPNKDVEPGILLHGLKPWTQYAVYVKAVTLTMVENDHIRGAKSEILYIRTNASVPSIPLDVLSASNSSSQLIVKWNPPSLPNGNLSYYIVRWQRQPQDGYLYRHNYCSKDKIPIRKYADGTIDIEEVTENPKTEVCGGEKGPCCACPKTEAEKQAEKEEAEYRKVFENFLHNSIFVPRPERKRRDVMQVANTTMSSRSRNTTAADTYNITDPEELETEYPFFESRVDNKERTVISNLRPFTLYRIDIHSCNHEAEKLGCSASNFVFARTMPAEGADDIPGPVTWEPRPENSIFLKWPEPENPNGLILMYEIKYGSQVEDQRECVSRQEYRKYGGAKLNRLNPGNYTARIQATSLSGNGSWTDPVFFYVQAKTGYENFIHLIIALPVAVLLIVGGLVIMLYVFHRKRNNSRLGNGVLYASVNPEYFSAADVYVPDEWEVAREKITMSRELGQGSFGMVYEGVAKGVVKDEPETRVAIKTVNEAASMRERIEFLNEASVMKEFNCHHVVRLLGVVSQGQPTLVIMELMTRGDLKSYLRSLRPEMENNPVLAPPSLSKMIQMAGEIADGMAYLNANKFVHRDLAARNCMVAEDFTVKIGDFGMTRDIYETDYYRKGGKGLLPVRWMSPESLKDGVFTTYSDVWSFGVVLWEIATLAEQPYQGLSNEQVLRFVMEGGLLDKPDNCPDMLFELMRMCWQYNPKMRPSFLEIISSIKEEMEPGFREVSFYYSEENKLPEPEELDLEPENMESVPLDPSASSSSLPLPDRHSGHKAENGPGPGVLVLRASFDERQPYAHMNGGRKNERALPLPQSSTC

`COc1cc2c(Nc3ccc(Sc4nc5cc(C)ccc5n4C)c(Cl)c3)c(C#N)cnc2cc1NCCCN(C)C` [Example 3, 4-({3-chloro-4-[(1,5-dimethyl-1H-benzimidazol-2-yl)thio]phenyl}amino)-7-{[3-(dimethylamino)propyl]amino}-6-methoxyquinoline-3-carbonitrile]: the IC50 in series [1] is 291 nM. Same read-out and setting: in the case of `COc1cc2c(Nc3ccc(Sc4nc(C)c(C)n4C)c(Br)c3)c(C#N)cnc2cc1NCCCN(C)C` [Example 5, 4-({3-bromo-4-[(1,4,5-trimethyl-1H-imidazol-2-yl)thio]phenyl}amino)-7-{[3-(dimethylamino)-propyl]amino}-6-methoxy-quinoline-3-carbonitrile] it was 30 nM.

On to `COc1cc2c(Nc3ccc(Sc4nc(C)c(C)n4C)cc3)c(C#N)cnc2cc1NCCCN(C)C` [Example 6, 7-{[3-(dimethyl-amino)propyl]-amino}-6-methoxy-4-({4-[(1,4,5-trimethyl-1H imidazol-2-yl)thio]phenyl}amino)-quinoline-3-carbonitrile], for which half-maximal inhibition in series [1] (IC50) required 394 nM. On the same count and under the same terms, the figure for `CCn1c(Sc2ccc(Nc3c(C#N)cnc4cc(NCCCc5ccccc5)c(OC)cc34)cc2Cl)nc(C)c1C` [Example 7, 4-({3-Chloro-4-[(1-ethyl-4,5-dimethyl-1H-imidazol-2-yl)thio]phenyl}amino)-6-methoxy-7-[(3-phenylpropyl)amino]quinoline-3-carbonitrile] is 17200 nM; for `CCn1c(Sc2ccc(Nc3c(C#N)cnc4cc(NCCCN5CCOCC5)c(OC)cc34)cc2Cl)nc(C)c1C` [Example 8, 4-({3-chloro-4-[(1-ethyl-4,5-dimethyl-1H-imidazol-2-yl)thio]phenyl}-amino)-6-methoxy-7-[(3-morpholin-4-ylpropyl)amino]-quinoline-3-carbonitrile] it is 13 nM. On the same count and under the same terms, in the case of `CCn1c(Sc2ccc(Nc3c(C#N)cnc4cc(NCCCN(CCO)CCO)c(OC)cc34)cc2Cl)nc(C)c1C` [Example 9, 7-({3-[bis(2-hydroxyethyl)amino]propyl}amino)-4-({3-chloro-4-[(1-ethyl-4,5-dimethyl-1H-imidazol-2-yl)thio]phenyl}amino)-6-methoxyquinoline-3-carbonitrile] it was 21 nM; in that of `CCn1c(Sc2ccc(Nc3c(C#N)cnc4cc(OCCCNS(=O)(=O)c5ccccc5)c(OC)cc34)cc2Cl)nc(C)c1C` [Example 10, N-(3-{4-[3-chloro-4-(1-ethyl-4,5-dimethyl-1H-imidazol-2-ylsulfanyl)-phenylamino]-3-cyano-6-methoxy-quinolin-7-yloxy}-propyl)-benzenesulfonamide], 3880 nM; in that of `CCn1c(Sc2ccc(Nc3c(C#N)cnc4cc(OCCCN(CCO)C(C)(C)C)c(OC)cc34)cc2Cl)nc(C)c1C` [Example 11, 7-{3-[tert-butyl(2-hydroxy-ethyl)amino]propoxy}-4-({3-chloro-4-[(1-ethyl-4,5-dimethyl-1H-imidazol-2-yl)thio]phenyl}amino)-6-methoxyquinoline-3-carbonitrile], 24 nM. In series [1], `CCOC(=O)N1CCN(CCCOc2cc3ncc(C#N)c(Nc4ccc(Sc5nc(C)c(C)n5CC)c(Cl)c4)c3cc2OC)CC1` [Example 13, ethyl 4-(3-{[4-({3-chloro-4-[(1-ethyl-4,5-dimethyl-1H-imidazol-2-yl)thio]phenyl}amino)-3-cyano-6-methoxyquinolin-7-yl]oxy}propyl)-piperazine-1-carboxylate] returned an IC50 of 41 nM.

Turning to `CCC1CCCCN1CCCOc1cc2ncc(C#N)c(Nc3ccc(Sc4nc(C)c(C)n4CC)c(Cl)c3)c2cc1OC` (stereo not drawn) [Example 14, 4-({3-chloro-4-[(1-ethyl-4,5-dimethyl-1H-imidazol-2-yl)thio]phenyl}amino)-7-[3-(2-ethylpiperidin-1-yl)propoxy]-6-methoxy-quinoline-3-carbonitrile], the IC50 in series [1] was determined as 27 nM. Molecule `CCOC(=O)C1CCN(CCCOc2cc3ncc(C#N)c(Nc4ccc(Sc5nc(C)c(C)n5CC)c(Cl)c4)c3cc2OC)CC1` [Example 15, ethyl 1-(3-{[4-({3-chloro-4-[(1-ethyl-4,5-dimethyl-1H-imidazol-2-yl)thio]phenyl}amino)-3-cyano-6-methoxyquinolin-7-yl]oxy}propyl)-piperidine-4-carboxylate] gave an IC50 in series [1] of 142 nM. As to `CCn1c(Sc2ccc(Nc3c(C#N)cnc4cc(OCCCNS(C)(=O)=O)c(OC)cc34)cc2Cl)nc(C)c1C` [Example 16, N-(3-{[4-({3-chloro-4-[(1-ethyl-4,5-dimethyl-1H-imidazol-2-yl)thio]phenyl]amino)-3-cyano-6-methoxyquinolin-7-yl]oxy}propyl)-methanesulfonamide], the IC50 in series [1] was 35 nM. `CCN1CCN(CCCOc2cc3ncc(C#N)c(Nc4ccc(Sc5nc(C)c(C)n5CC)c(Cl)c4)c3cc2OC)CC1` [Example 17, 4-({3-Chloro-4-[(1-ethyl-4,5-dimethyl-1H-imidazol-2-yl)sulfanyl]phenyl}amino)-7-[3-(4-ethyl-1-piperazinyl)propoxy]-6-methoxy-3-quinolinecarbonitrile] showed a melting point of 229 to 230 °C. The same molecule gave an IC50 in series [1] of 5 nM. The molecule `CCn1c(Sc2ccc(Nc3c(C#N)cnc4cc(OCCCN5CCN(CCO)CC5)c(OC)cc34)cc2Cl)nc(C)c1C` [Example 18, 4-({3-chloro-4-[(1-ethyl-4,5-dimethyl-1H-imidazol-2-yl)thio]-phenyl}amino)-7-{3-[4-(2-hydroxyethyl)piperazin-1-yl]propoxy}-6-methoxy-quinoline-3-carbonitrile] had an IC50 in series [1] of 11 nM.

`CCn1c(Sc2ccc(Nc3c(C#N)cnc4cc(OCCCN5CCC(O)C5)c(OC)cc34)cc2Cl)nc(C)c1C` (stereo not drawn) [Example 20, 4-({3-chloro-4-[(1-ethyl-4,5-dimethyl-1H-imidazol-2-yl)thio]phenyl}amino)-7-[3-(3-hydroxypyrrolidin-1-yl)propoxy]-6-methoxyquinoline-3-carbonitrile] came in with an IC50 in series [1] of 20 nM. `CCOC(=O)CN1CCN(CCCOc2cc3ncc(C#N)c(Nc4ccc(Sc5nc(C)c(C)n5CC)c(Cl)c4)c3cc2OC)CC1` [Example 22, ethyl [4-(3-{[4-({3-chloro-4-[(1-ethyl-4,5-dimethyl-1H-imidazol-2-yl)thio]phenyl}amino)-3-cyano-6-methoxyquinolin-7-yl]oxy}propyl)piperazin-1-yl]acetate]: the IC50 in series [1] is 17 nM. Same read-out and setting: the figure for `CCn1c(Sc2ccc(Nc3c(C#N)cnc4cc(OCCCN5CCOCC5)c(OC)cc34)cc2Cl)nc(C)c1C` [Example 24, 4-({3-chloro-4-[(1-ethyl-4,5-dimethyl-1H-imidazol-2-yl)thio]phenyl}amino)-6-methoxy-7-(3-morpholin-4-ylpropoxy)qquinoline-3-carbonitrile] is 22 nM; for `CCn1c(Sc2ccc(Nc3c(C#N)cnc4cc(OCCCN5CCC(O)CC5)c(OC)cc34)cc2Cl)nc(C)c1C` [Example 26, 4-({3-chloro-4-[(1-ethyl-4,5-dimethyl-1H-imidazol-2-yl)thio]phenyl}amino)-7-[3-(4-hydroxypiperidin-1-yl)propoxy]-6-methoxyquinoline-3-carbonitrile] it is 47 nM. In turn, `CCn1c(Sc2ccc(Nc3c(C#N)cnc4cc(OCCCN5CCN(C(C)=O)CC5)c(OC)cc34)cc2Cl)nc(C)c1C` [Example 27, 7-[3-(4-acetylpiperazin-1-yl)propoxy]-4-({3-chloro-4-[(1-ethyl-4,5-dimethyl-1H imidazol-2-yl)thio]phenyl}amino)-6-methoxyquinoline-3-carbonitrile] registered an IC50 in series [1] of 16 nM. `CCn1c(Sc2ccc(Nc3c(C#N)cnc4cc(NCCCN5CCN(C)CC5)c(OC)cc34)cc2Cl)nc(C)c1C` [Example 28, 4-[3-Chloro-4-(1-ethyl-4,5-dimethyl-1H-imidazol-2-ylsulfanyl)-phenylamino]-6-methoxy-7-[3-(4-methyl-piperazin-1-yl)-propylamino]-quinoline-3-carbonitrile] had an IC50 in series [1] of 2 nM.

Usually IC50 stands for the concentration at which inhibition is half-maximal. High values mean weaker potency, low ones greater potency. A word on the melting point: it is the temperature of the solid-liquid transition.
